Results: article PMC10641236, “Influenza A virus replication has a stronger dependency on Raf/MEK/ERK signaling pathway activity than SARS-CoV-2” (Frontiers in Cellular and Infection Microbiology, 2023)
Where two headings read alike, the source gives them in different places.

Columns and labels:
SARS-CoV-2 = assay type: cell-based; details: 100 µM, Caco-2 cells, MOI 4, 10 h
[1] = test system: MEK1/2 (ERK1/2 phosphorylation); assay: IC50 determination in virus-infected cells, pERK/ERK ratio by WES; assay type: cell-based, Homo sapiens; details: for IC50: Homo sapiens
Procedure: Calu-3 and Caco-2 cells were seeded in 24-well plates (Greiner Bio-One GmbH, Frickenhausen, Germany) and grown to 90% confluence. The cells were washed once with infection medium [IMDM supplemented with 0.2% bovine serum albumin (BSA) (Carl Roth GmbH + Co. KG, Karlsruhe, Germany) and 1% penicillin–streptomycin] prior to infection with a multiplicity of infection (MOI) of 0.01 of IAV PR8 or SARS-CoV-2 for 1 h in 200 µL of infection medium per well. Afterwards, the virus inoculum was removed completely, and the cells were washed once with infection medium and then treated with 1 mL per well of different concentrations of zapnometinib in infection medium with 1% dimethyl sulfoxide (DMSO) (Merck Millipore, Burlington, MA, USA) for 24 h at 37°C, 5% CO2. Supernatants were harvested and stored at −80°C for subsequent determination of virus titer and EC50 value. Cell lysates were prepared as described in the “Preparation of cell lysates and WES™ analysis” section for WES™ analysis.
Cells were lysed using cold modified RIPA buffer [0.24% (w/v) tris base (Sigma-Aldrich, St. Louis, Missouri, USA), 0.88% (w/v) NaCl (Carl Roth, Karlsruhe, Germany), 0.2% (v/v) 500 mM ethylenediaminetetraacetic acid (EDTA) (Sigma-Aldrich, St. Louis, Missouri, USA), 1% (v/v) Triton X-100 (Sigma-Aldrich, St. Louis, Missouri, USA), 0.5% (w/v) sodium deoxycholate (Sigma-Aldrich, St. Louis, Missouri, USA), 0.1% (w/v) sodium dodecyl sulfate (SDS) (Carl Roth, Karlsruhe, Germany), 10% (v/v) glycerol (Carl Roth, Karlsruhe, Germany), 0.05% phenylmethylsulfonyl fluoride (PMSF) (Carl Roth, Karlsruhe, Germany), 0.01% Benzonase® Nuclease (Sigma-Aldrich, St. Louis, Missouri, USA), protease inhibitor cocktail (Roche, Basel, Switzerland), and phosphatase inhibitor cocktail (Roche, Basel, Switzerland) in water]. Determination of the protein concentration was performed using the Pierce™ BCA Protein Assay Kit (Thermo Fisher Scientific Inc., Waltham, MA, USA) according to the manufacturer’s instructions. The samples were analyzed by Wes™ using a total protein concentration of 0.25–0.5 µg/µL for each sample, the Jess/Wes Separation kit (12–230 kDa), primary antibodies against ERK1/2, p44/42 MAPK (137F5) Rabbit mAb (Cell Signaling Technology, Danvers, MA, USA, Cat. No. 4695S) and phospho-ERK1/2 (pERK1/2), Phospho-p44/42 MAPK (Erk1/2) (Thr202/Tyr204) (D13.14.4E), XP® Rabbit mAb (Cell Signaling Technology, Danvers, MA, USA, Cat. no. 4370S) in a 1:50 dilution, anti-Influenza A virus Nucleoprotein (NP) antibody (rabbit MAb) (Sino Biological, Beijing, China Cat.no 40208-R010) in a 1:150 dilution, SARS-CoV-2 nucleocapsid protein antibody (ProSci Inc., Poway, CA, USA, Cat. no. 35-580) in a 1:100 dilution, the anti-goat, anti-rabbit, and anti-mouse detection modules, and the EZ Standard Pack 1 (12–230 kDa), according to the manufacturer’s instructions. Analysis of the obtained data was performed using the Compass for SW 4.1.0 software, Microsoft Excel, and the GraphPad Prism 9.2.0 software. Ratios were calculated from the area under the curve of the respective detected signals.
Twenty-four hours before the experiment, the growth medium was exchanged to medium with respective FBS or BSA concentration. Then, cells were stimulated by the addition of tumor necrosis factor alpha (TNF-α) (Sigma-Aldrich, St. Louis, Missouri, USA) for 30 min at 37°C, 5% CO2, followed by treatment with different zapnometinib concentrations and a DMSO (solvent) control for 1 h. For determination of the IC50 value in cells infected with IAV PR8 or SARS-CoV-2, cells were infected with the respective virus and treated with zapnometinib for 24 h as described in the “Virus yield reduction assay” section. After incubation, cell lysates were prepared, and the samples were analyzed by WES™ as described in the “Preparation of cell lysates and WES™ analysis” section. The pERK/ERK ratio was calculated and normalized to the solvent control. […]

IAV RB1 = test system: IAV RB1; design: method as in Laure et al., 2020; details: IAV RB1, medium containing 0.2% BSA; ref Laure et al., 2020; cited from earlier work
IAV PR8 = assay type: cell-based; details: 100 µM, Caco-2 cells, MOI 4, 10 h
Caco-2 cells = assay type: cell-based; details: human, 24 h
Procedure: (§1) Per well, 2.5 × 10^4 Caco-2 cells or 4 × 10^4 Calu-3 cells were seeded in 96-well plates (Greiner Bio-One, Kremsmünster, Austria) and incubated for 24 h at 37°C, 5% CO2. Cell viability was assessed using a WST-1 assay according to the manufacturer’s recommendations (Roche, Basel, Switzerland). For reference, cell viability was assessed at 0 h and after 24 h of treatment with different concentrations of zapnometinib in medium containing 1% DMSO. The measured cell viability was normalized to the 0-h control. The CC50 value was determined using the “Sigmoidal, 4PL, X is log(concentration)” equation in GraphPad Prism.

Calu-3 cells = assay type: cell-based; details: human, 24 h
Procedure: as §1

IBV Lee = test system: IBV Lee; design: method as in Laure et al., 2020; details: medium containing 0.2% BSA, ref Laure et al., 2020; cited from earlier work
IAV PR8 NP = assay type: cell-based; details: MOI 0.01, 24 h; for reduction of IAV PR8 NP (NP/ERK2 normalized to solvent control): both cell lines
COVID-19 = details: hospitalized COVID-19 patients; ref ClinicalTrials.gov NCT04776044; cited from earlier work

For `O=C(O)c1ccc(F)c(F)c1Nc1ccc(I)cc1Cl` [zapnometinib, 2-(2-chloro-4-iodophenylamino)-N-3,4-difluoro benzoic acid], the “Infected cells (SARS-CoV-2 N positive) normalized to solvent control” value (SARS-CoV-2) was 18.3%, the “amount of SARS-CoV-2 N” value (SARS-CoV-2) was “reduced” and the “distribution of the SARS-CoV-2 N” value (SARS-CoV-2) was “did not change”. For the same molecule, the “Level of MEK activation (ERK phosphorylation) at EC50” value (shortened to “Level of MEK activation”) ([1]; Caco-2 cells, IAV PR8, interpolated at EC50 5.72 µM) was 37%, the “Level of MEK activation” value ([1]; Caco-2 cells, SARS-CoV-2, interpolated at EC50 22.9 µM) was 25% and the “Level of MEK activation” value ([1]; Calu-3 cells, IAV PR8, interpolated at EC50 7.13 µM) was 25%. The “Level of MEK activation” value ([1]; Calu-3 cells, SARS-CoV-2, interpolated at EC50 19.7 µM) was 10%, the IC50 ([1]; Caco-2, 24 h, read-out: IC50 value (ERK phosphorylation) in infected cells, IAV PR8-infected Caco-2 cells, MOI 0.01, 0.2% BSA, 24 h) was 2.24 µM and the IC50 ([1]; Caco-2, 24 h, read-out: IC50 value (ERK phosphorylation) in infected cells, SARS-CoV-2-infected Caco-2 cells, MOI 0.01, 0.2% BSA, 24 h, bottom plateau constrained to 0) was 5.65 µM. For the same molecule, the IC50 ([1]; Calu-3, 24 h, read-out: IC50 value (ERK phosphorylation) in infected cells, IAV PR8-infected Calu-3 cells, MOI 0.01, 0.2% BSA, 24 h) was 1.01 µM, the IC50 ([1]; Calu-3, 24 h, read-out: IC50 value (ERK phosphorylation) in infected cells, SARS-CoV-2-infected Calu-3 cells, MOI 0.01, 0.2% BSA, 24 h) was 1.99 µM and the EC50 (IAV RB1) was 6.36 µM. The “Infected cells (IAV PR8 NP positive) normalized to solvent control” value (IAV PR8) was 44.9%, the “localization of the IAV NP” value (IAV PR8) was “retention of the IAV NP in the nucleus” and the CC50 (Caco-2 cells) was 360 µM. For the same molecule, the CC50 (Calu-3 cells) was 303 µM, the EC50 (IBV Lee) was 4.19 µM and the “reduction of IAV PR8 NP (NP/ERK2 normalized to solvent control)” value (IAV PR8 NP; 12.5 µM) was “approximately 50%”. The “reduction of IAV PR8 NP (NP/ERK2 normalized to solvent control)” value (IAV PR8 NP; 50 µM) was over 70%, the “reduction of IAV PR8 NP (NP/ERK2 normalized to solvent control)” value (IAV PR8 NP; 100 µM) was over 80% and the “lowest concentration at which IAV PR8 NP was significantly reduced compared to solvent control” value (IAV PR8 NP) was 0.39 µM. The “efficacy in terms of the primary endpoint, phase II clinical trial” value (COVID-19) was “clinically relevant efficacy profile” and the “safety profile, phase II clinical trial” value (COVID-19) was “favorable safety profile”.
